Results: PubChem BioAssay (NCI)
Values joined by “and” are separate entries in the source; they are usually repeats but may differ in a detail not shown here. Identical values can stand only once.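 Briefly, cells in 96-well plates were exposed to five compound concentrations for 48 h, and endpoints were estimated by linear interpolation. GI50: concentration for 50% inhibition of growth. TGI: total growth inhibition.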

Experiments:
Experiment in all cases: growth of human tumour cells (NCI), 48 h
[1] = tested on: HOP-92 NSCLC
[2] = tested on: LOX IMVI melanoma
[3] = tested on: NCI-H23 lung
[4] = tested on: OVCAR-8 ovarian
[5] = tested on: SN12C renal
[6] = tested on: SW-620 colon
[7] = tested on: U251 CNS

Question: For COc1cc2c3c(n(CCCCOC(=O)C(Cl)(Cl)Cl)c(=O)c2cc1OC)-c1cc2c(cc1C3=O)OCO2, which GI50 [1] is on record?
Answer: > 100000 nM

Question: And the TGI [1]?
Answer: > 100 µM

Question: And the GI50 [2]?
Answer: 35900 nM

Question: And the TGI [2]?
Answer: > 100 µM

Question: And the GI50 [3]?
Answer: 92000 nM

Question: And the TGI [3]?
Answer: > 100 µM

Question: And the GI50 [4]?
Answer: 27900 nM

Question: What about the TGI [4] of the same compound?
Answer: > 100 µM

Question: What about the GI50 [5] of the same compound?
Answer: 43700 nM

Question: What about the TGI [5] of the same compound?
Answer: > 100 µM

Question: What about the GI50 [6] of the same compound?
Answer: 85500 nM

Question: And the TGI [6]?
Answer: > 100 µM

Question: And the GI50 [7]?
Answer: 21500 nM

Question: And the TGI [7]?
Answer: > 100 µM

Question: Which TGI [1] does the source give for CON(C)C(=O)N1N=C(c2cc(F)ccc2F)SC1(CCCN)c1ccccc1 (stereo not given) here?
Answer: 10.2 µM and 15 µM

Question: What about the GI50 [2] of the same compound?
Answer: 24 nM and < 10 nM

Question: And the TGI [2]?
Answer: 17.5 µM and 16.4 µM

Question: And the GI50 [3]?
Answer: 93.6 nM and < 10 nM

Question: What about the TGI [3] of the same compound?
Answer: 21.9 µM and 14.8 µM

Question: What about the GI50 [4] of the same compound?
Answer: 26.6 nM and < 10 nM

Question: And the TGI [4]?
Answer: 18.9 µM and 19.8 µM

Question: And the GI50 [5]?
Answer: < 10 nM

Question: And the TGI [5]?
Answer: 16 µM and 16.1 µM

Question: What about the GI50 [6] of the same compound?
Answer: < 10 nM

Question: What about the TGI [6] of the same compound?
Answer: 15.6 µM and 16 µM

Question: And the GI50 [7]?
Answer: < 10 nM

Question: What about the TGI [7] of the same compound?
Answer: 13.4 µM and 13.7 µM

Question: What does the source list for O=C(/C=C\n1cnc(-c2cc(C(F)(F)F)cc(C(F)(F)F)c2)n1)NNc1cnccn1?
Answer: GI50 [1]: 94 nM; TGI [1]: 9.21 µM; GI50 [2]: 44.6 nM; TGI [2]: 1.5 µM; GI50 [3]: 66.1 nM; TGI [3]: 15.7 µM; GI50 [4]: 76.9 nM; TGI [4]: 36.5 µM; GI50 [5]: 356 nM; TGI [5]: 15.4 µM; GI50 [6]: 47.2 nM; TGI [6]: 13.3 µM; GI50 [7]: 51.1 nM; TGI [7]: 12.4 µM

Question: How did the GI50 [1] turn out when CCCCCN(CCCCC)CC(O)c1ccc(Cl)c2ccccc12 (stereo not given) was run?
Answer: 974 nM

Question: What about the TGI [1] of the same compound?
Answer: 14 µM

Question: What about the GI50 [2] of the same compound?
Answer: 3940 nM

Question: And the TGI [2]?
Answer: 16.4 µM

Question: And the GI50 [3]?
Answer: 4500 nM

Question: What about the TGI [3] of the same compound?
Answer: 19.9 µM

Question: And the GI50 [4]?
Answer: 16600 nM

Question: What about the TGI [4] of the same compound?
Answer: 36.6 µM

Question: And the GI50 [5]?
Answer: 10600 nM

Question: What about the TGI [5] of the same compound?
Answer: 24.6 µM

Question: And the GI50 [6]?
Answer: 2770 nM

Question: And the TGI [6]?
Answer: 13.6 µM

Question: What about the GI50 [7] of the same compound?
Answer: 12300 nM

Question: And the TGI [7]?
Answer: 28.6 µM

Question: For O=C1OC(c2ccco2)=N/C1=C\c1cccc([N+](=O)[O-])c1, which TGI [1] is on record?
Answer: > 100 µM

Question: And the TGI [2]?
Answer: > 100 µM

Question: And the TGI [3]?
Answer: > 100 µM

Question: And the TGI [4]?
Answer: > 100 µM

Question: What about the TGI [5] of the same compound?
Answer: > 100 µM

Question: What about the TGI [6] of the same compound?
Answer: > 100 µM

Question: And the TGI [7]?
Answer: > 100 µM

Question: For COc1ccc2nc3cc(Cl)ccc3c(NCCN)c2c1, which GI50 [1] is on record?
Answer: 1470 nM

Question: And the TGI [1]?
Answer: 2.95 µM

Question: What about the GI50 [6] of the same compound?
Answer: 1450 nM

Question: And the TGI [6]?
Answer: 3.25 µM

Question: What about the GI50 [7] of the same compound?
Answer: 1710 nM

Question: What about the TGI [7] of the same compound?
Answer: 3.09 µM

Question: COc1ccc(-n2cc(-c3cc(OC)c(OC)c(OC)c3)[nH]c2=O)cc1Cl was tested. Which GI50 [1] did it give?
Answer: 15000 nM

Question: And the TGI [1]?
Answer: > 100 µM

Question: What about the GI50 [2] of the same compound?
Answer: > 100000 nM

Question: And the TGI [2]?
Answer: > 100 µM

Question: What about the GI50 [3] of the same compound?
Answer: > 100000 nM

Question: And the TGI [3]?
Answer: > 100 µM

Question: What about the GI50 [5] of the same compound?
Answer: > 100000 nM

Question: What about the TGI [5] of the same compound?
Answer: > 100 µM

Question: What about the GI50 [6] of the same compound?
Answer: > 100000 nM

Question: What about the TGI [6] of the same compound?
Answer: > 100 µM

Question: And the GI50 [7]?
Answer: 37700 nM

Question: What about the TGI [7] of the same compound?
Answer: > 100 µM

Question: Which GI50 [1] does the source give for O=C(/C(=C/c1cccc([N+](=O)[O-])c1)c1ccccc1)c1ccccc1 here?
Answer: 1970 nM

Question: What about the TGI [1] of the same compound?
Answer: 6.95 µM

Question: What about the GI50 [3] of the same compound?
Answer: 2920 nM

Question: What about the TGI [3] of the same compound?
Answer: 17 µM

Question: What about the GI50 [5] of the same compound?
Answer: 3540 nM

Question: And the TGI [5]?
Answer: 79.8 µM

Question: What about the GI50 [6] of the same compound?
Answer: 3100 nM

Question: And the TGI [6]?
Answer: 9.19 µM

Question: And the GI50 [7]?
Answer: 2720 nM

Question: What about the TGI [7] of the same compound?
Answer: 8.16 µM

Question: What does the source list for COC(=O)C12C3C4C1C1C2C3C41NC(=O)c1csc([C@@H](C[C@H](C(C)C)N(C)C(=O)[C@@H](NC(=O)[C@H]2CCCCN2C)C2CC2)OC(C)=O)n1 (stereo not given in full)?
Answer: GI50 [2]: 8.82 nM; TGI [2]: > 33.3 µM; GI50 [3]: 151 nM; TGI [3]: > 33.3 µM; GI50 [4]: 40.4 nM; TGI [4]: > 33.3 µM; GI50 [5]: 24.2 nM; TGI [5]: > 33.3 µM; GI50 [6]: 7.46 nM; TGI [6]: > 33.3 µM; GI50 [7]: 52.7 nM; TGI [7]: > 33.3 µM

Question: What does the source list for Cc1ccc(NC(=O)NCCCOc2ccc(N3C(N)=NC(N)=NC3(C)C)cc2Cl)cc1S(=O)(=O)F?
Answer: GI50 [1]: 18900 nM; TGI [1]: 75.1 µM; GI50 [2]: 4190 nM; TGI [2]: > 100 µM; GI50 [3]: 5000 nM; TGI [3]: > 100 µM; GI50 [4]: 7850 nM; TGI [4]: > 100 µM; GI50 [6]: 2030 nM; TGI [6]: > 100 µM; GI50 [7]: 4040 nM; TGI [7]: > 100 µM

Question: CC(C)CCCC(=O)CCCCCCC(=O)CCN(O)C(=O)C(N)CO (stereo not given) was tested. Which TGI [2] did it give?
Answer: 30.9 µM

Question: What about the TGI [3] of the same compound?
Answer: 32.1 µM

Question: And the TGI [4]?
Answer: 39.3 µM

Question: And the TGI [5]?
Answer: 43 µM

Question: What about the TGI [6] of the same compound?
Answer: > 100 µM

Question: What about the TGI [7] of the same compound?
Answer: 65 µM

Question: What does the source list for CNc1nc(N)c(N=O)c(Nc2ccc(Br)cc2)n1?
Answer: TGI [2]: > 100 µM; TGI [3]: > 100 µM; TGI [4]: > 100 µM; TGI [5]: > 100 µM; TGI [6]: > 100 µM; TGI [7]: > 100 µM

Question: COC(=O)c1c(C)[nH]c(/C=C2\N=C(c3ccc[nH]3)C=C2OC)c1C was tested. Which GI50 [1] did it give?
Answer: 169 nM

Question: What about the TGI [1] of the same compound?
Answer: 0.711 µM

Question: What about the GI50 [3] of the same compound?
Answer: 483 nM

Question: What about the TGI [3] of the same compound?
Answer: 4.55 µM

Question: What about the GI50 [4] of the same compound?
Answer: 229 nM

Question: What about the GI50 [5] of the same compound?
Answer: 389 nM

Question: And the TGI [5]?
Answer: > 75.4 µM

Question: What about the GI50 [6] of the same compound?
Answer: 36.5 nM

Question: What about the GI50 [7] of the same compound?
Answer: 117 nM

Question: What about the TGI [7] of the same compound?
Answer: 2.49 µM

Question: Which results are given for CC1(C)N=C(N)N=C(N)N1c1ccc(OCc2ccc(S(=O)(=O)F)c(Cl)c2)c(Cl)c1?
Answer: GI50 [2]: 448 nM; TGI [2]: > 100 µM; GI50 [3]: 2090 nM; TGI [3]: > 100 µM; GI50 [4]: 735 nM; TGI [4]: > 100 µM; GI50 [5]: 558 nM; TGI [5]: > 100 µM; GI50 [6]: 424 nM; TGI [6]: > 100 µM; GI50 [7]: 2900 nM; TGI [7]: > 100 µM

Question: With C=C(C)C1CCC2(C(=O)O)CCC3(C)C(CCC4C5(C)CCC(OC(=O)NCc6ccccc6)C(C)(C)C5CCC43C)C12 (stereo not given) as the compound, how does the GI50 [2] read?
Answer: 4840 nM

Question: And the TGI [2]?
Answer: > 100 µM

Question: And the GI50 [3]?
Answer: 2310 nM

Question: What about the TGI [3] of the same compound?
Answer: 44 µM

Question: And the GI50 [4]?
Answer: 7290 nM

Question: And the TGI [4]?
Answer: > 100 µM

Question: And the GI50 [5]?
Answer: 7110 nM

Question: What about the TGI [5] of the same compound?
Answer: > 100 µM

Question: What about the GI50 [6] of the same compound?
Answer: 2560 nM

Question: And the TGI [6]?
Answer: > 100 µM

Question: And the GI50 [7]?
Answer: 3070 nM

Question: And the TGI [7]?
Answer: > 100 µM

Question: How did the TGI [2] turn out when C/C=C(\C)CC/C=C/CO[Si](C)(C)C(C)(C)C was run?
Answer: 49.9 µM

Question: And the TGI [3]?
Answer: > 100 µM

Question: And the TGI [4]?
Answer: > 100 µM

Question: And the TGI [5]?
Answer: > 100 µM

Question: What about the TGI [6] of the same compound?
Answer: > 100 µM
